Like-named read-outs stand apart in the source and are kept apart here.
What was measured:
[1] = system: HCT-116 human colorectal carcinoma cells; assay: Cell-proliferation assay using Alamar Blue dye; format: cell-based; conditions: Homo sapiens;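 note: cells exposed to compound for about 4 days, then Alamar Blue added and dye fluorescence read after about 4 h, compared with medium-only control wells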
recombinant human PIM1 = recombinant human PIM1 (Homo sapiens (Human), UniProt P11309); assay: PIM-1 kinase activity in cell-free in vitro assay; format: biochemical; conditions: cell-free assay; for inhibition at 0.5 µM / PIM-1: % inh 500 nM: 500 nM compound; for inhibition at 0.5 µM: read-out: PIM-1: % inh 500 nM
Chain of recombinant human PIM1 (P11309 whole entry): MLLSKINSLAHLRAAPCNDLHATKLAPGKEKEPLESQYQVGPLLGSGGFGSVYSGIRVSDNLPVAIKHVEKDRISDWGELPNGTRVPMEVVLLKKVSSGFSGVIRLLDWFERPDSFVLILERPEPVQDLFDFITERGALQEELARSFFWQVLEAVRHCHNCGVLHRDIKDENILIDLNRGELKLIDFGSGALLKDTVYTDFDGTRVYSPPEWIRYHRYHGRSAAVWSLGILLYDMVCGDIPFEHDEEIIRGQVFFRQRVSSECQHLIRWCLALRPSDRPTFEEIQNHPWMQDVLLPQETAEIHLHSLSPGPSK

Jurkat = assay: Cell proliferation modulatory activity, Jurkat; format: cell-based
[2] = HCT-116, read-out: HCT-116 (uM), cell proliferation modulatory activity, HCT-116, second HCT-116 column (c8)
[3] = HCT-116, HCT-116, second HCT-116 column (c8), read-out: HCT-116 (uM), cell proliferation modulatory activity

Compound	IC50 [1, 2]	inhibition at 0.5 µM (recombinant human PIM1)	IC50 (Jurkat; Homo sapiens)	IC50 (recombinant human PIM1)	IC50 [1, 3]	PIM-1: % inh 500 nM (recombinant human PIM1)	IC50 (Jurkat)
O=C(O)c1ccc2c(c1)nc(Nc1ccccc1)c1nc(NCCCN3CCOCC3)ncc12	> 10 µM	33.7%	2.18 µM				
COC(CNc1ncc2c(n1)c(Nc1ccc(F)c(Cl)c1)nc1cc(C(=O)O)ccc12)OC		57.6%	1.12 µM				
O=C(NC1CC1)c1ccc2c(c1)nc(Nc1cccc(C(F)(F)F)c1)c1nc(NC3CC3)ncc12		16.7%	3.92 µM				
CNC(=O)c1ccc2c(c1)nc(Nc1cccc(C(F)(F)F)c1)c1nc(NC3CC3)ncc12		16.2%	3.65 µM				
CCOC(=O)CCNC(=O)c1ccc2c(c1)nc(Nc1cccc(C(F)(F)F)c1)c1nc(NC3CC3)ncc12		10.5%	7.24 µM				
CNc1ncc2c(n1)c(NC1CC1)nc1cc(C(=O)O)ccc12	> 10 µM	52.4%	9.68 µM	0.535 µM			
CN(C)c1ncc2c(n1)c(NC1CC1)nc1cc(C(=O)O)ccc12		-38.5%	> 50 µM		> 10 µM		
CC(=O)Nc1ccc2c(c1)nc(Nc1cccc(C(F)(F)F)c1)c1nc(NC3CC3)ncc12		-39.8%	1.22 µM		> 10 µM		
O=C(O)c1ccc2c(c1)nc(NC1CC1)c1nc(NCc3ccncc3)ncc12	> 10 µM	8.18%	35.6 µM				
O=C(O)c1ccc2c(c1)nc(NC1CC1)c1nc(NCCO)ncc12		22.4%	> 50 µM				
O=C(O)c1ccc2c(c1)nc(NC1CC1)c1nc(NCc3ccccn3)ncc12	> 10 µM	11.2%	23.3 µM				
O=C(O)c1ccc2c(c1)nc(NC1CC1)c1nc(NCCc3ccccc3)ncc12	> 10 µM	-11.1%	0.826 µM				
O=C(O)c1ccc2c(c1)nc(NC1CC1)c1nc(NCCN3CCOCC3)ncc12		41.2%	21 µM		> 10 µM		
O=C(O)c1ccc2c(c1)nc(NC1CC1)c1nc(NC(CO)c3ccccc3)ncc12 (stereo not shown)		-22.8%	27.5 µM		> 10 µM		
O=C(O)c1ccc2c(c1)nc(NC1CC1)c1nc(NNCCO)ncc12		-37%	> 50 µM		> 10 µM		
O=C(O)c1ccc2c(c1)nc(NC1CC1)c1nc(NC3CCNCC3)ncc12		18.9%	> 50 µM		> 10 µM		
COC(=O)c1ccc2c(c1)nc(N)c1nc(SC)ncc12		-13.2%	1.14 µM		4.77 µM		
O=C(O)c1ccc2c(c1)nc(NC1CC1)c1nc(Nc3ccc(F)cc3)ncc12		49.3%	5.02 µM	1.07 µM	> 10 µM		
O=C(O)c1ccc2c(c1)nc(NC1CC1)c1nc(Nc3ccc(F)c(Cl)c3)ncc12		8.76%	26.6 µM		> 10 µM		

Compound	IC50 [1, 2]	inhibition at 0.5 µM (recombinant human PIM1)	IC50 (Jurkat; Homo sapiens)	IC50 (recombinant human PIM1)	IC50 [1, 3]	PIM-1: % inh 500 nM (recombinant human PIM1)	IC50 (Jurkat)
COc1ccc(Nc2ncc3c(n2)c(NC2CC2)nc2cc(C(=O)O)ccc23)cc1Cl		38.7%	9.17 µM		2.31 µM		
Cc1ccccc1Nc1ncc2c(n1)c(NC1CC1)nc1cc(C(=O)O)ccc12		52.8%	18.6 µM	0.994 µM	> 10 µM		
CCOc1cccc(Nc2ncc3c(n2)c(NC2CC2)nc2cc(C(=O)O)ccc23)c1		32.8%	5.17 µM		3.77 µM		
CCOc1ccc(Nc2ncc3c(n2)c(NC2CC2)nc2cc(C(=O)O)ccc23)cc1		45.9%	9.26 µM		> 10 µM		
CC(C)Oc1ccc(Nc2ncc3c(n2)c(NC2CC2)nc2cc(C(=O)O)ccc23)cc1		26.3%	18.9 µM		> 10 µM		
CC(=O)Nc1cccc(Nc2ncc3c(n2)c(NC2CC2)nc2cc(C(=O)O)ccc23)c1		32%	> 62.5 µM		> 10 µM		
O=C(O)c1ccc2c(c1)nc(NC1CC1)c1nc(Nc3cc(F)ccc3F)ncc12		50.4%	15.7 µM	> 1.1 µM	> 10 µM		
O=C(O)c1ccc2c(c1)nc(NC1CC1)c1nc(Nc3cc(F)cc(F)c3)ncc12		46.3%	35.4 µM		> 10 µM		
Nc1nc2cc(C(=O)O)ccc2c2cnc(NC3CC3)nc12		0.938%	55.2 µM		> 10 µM		
COC(=O)c1ccc2c(c1)nc(Nc1ccccc1C)c1nc(S(C)(=O)=O)ncc12		25.3%	> 30 µM		> 10 µM		
Cc1c(-c2cc(Nc3nc4cc(C(=O)O)ccc4c4cnccc34)n(C)n2)sc2ccc(Cl)cc12		4.53%	19.6 µM		> 10 µM		
Cc1ccc(Nc2nc3cc(C(=O)O)ccc3c3cnccc23)nc1		48.3%	1.26 µM	> 1.1 µM	> 10 µM		
O=C(O)c1ccc2c(c1)nc(N1CCC(c3ccccc3)C1)c1ccncc12 (stereo not shown)		1.04%	> 30 µM		> 10 µM		
O=C(O)c1ccc2c(c1)nc(Nc1ccc(OC(F)(F)F)cc1)c1ccncc12		68.3%	4.7 µM	0.668 µM	> 10 µM		
Cc1ccc(C(N)=O)cc1Nc1nc2cc(C(=O)O)ccc2c2cnccc12		9.95%	> 30 µM		> 10 µM		
O=C(O)c1ccc2c(c1)nc(Nc1cncc(C3CC3)c1)c1ccncc12 [drawing 1619]			> 50 µM		> 10 µM		
CC1CCCCN1CCCNc1ncc2c(n1)c(Nc1ccc(F)c(Cl)c1)nc1cc(C(=O)O)ccc12 (stereo not shown) [drawing 1629]		38.9%	2.86 µM				
COc1cccc(Nc2ncc3c(n2)c(NC2CC2)nc2cc(C(=O)O)ccc23)c1 [drawing 1717]						5.494%	54.6 µM
COc1cccc(Nc2ncc3c(n2)c(NC2CC2)nc2cc(C(=O)O)ccc23)c1 [drawing 1720]				0.97 µM		60.859%	3.15 µM

Next, values leading:

IC50 [1, 2]	inhibition at 0.5 µM (recombinant human PIM1)	IC50 (Jurkat; Homo sapiens)	IC50 (recombinant human PIM1)	IC50 [1, 3]	PIM-1: % inh 500 nM (recombinant human PIM1)	IC50 (Jurkat)	Compound
7.3 µM	-38.6%	1.27 µM					C#Cc1cccc(Nc2nc3cc(C(=O)O)ccc3c3cnc(NC4CC4)nc23)c1
4.69 µM	68.2%	1.29 µM	0.661 µM				C#Cc1cccc(Nc2nc3cc(C(=O)O)ccc3c3cnc(NC)nc23)c1
> 10 µM	51.5%	1.09 µM					CNc1ncc2c(n1)c(Nc1cccc(Cl)c1)nc1cc(C(=O)O)ccc12
		5.83 µM		> 10 µM			CN(C)c1ncc2c(n1)c(Nc1cccc(Cl)c1)nc1cc(C(=O)O)ccc12
	59.1%	2.59 µM					O=C(O)c1ccc2c(c1)nc(Nc1ccc(F)c(Cl)c1)c1nc(NCc3ccccn3)ncc12
	19.6%	1.5 µM					O=C(O)c1ccc2c(c1)nc(Nc1ccc(F)c(Cl)c1)c1nc(NCc3cccnc3)ncc12
	13%	8.98 µM					O=C(O)c1ccc2c(c1)nc(Nc1ccccc1)c1nc(Nc3ccccc3)ncc12
	-38.1%	31.5 µM		> 10 µM			C#Cc1cccc(Nc2nc3cc(C(N)=O)ccc3c3cncnc23)c1
> 10 µM	74.3%	2.66 µM	0.443 µM				Nc1ncc2c(n1)c(Nc1cccc(C(F)(F)F)c1)nc1cc(C(=O)O)ccc12
	-28.3%	1.95 µM		7.17 µM			C#Cc1cccc(Nc2nc3cc(C(=O)NC)ccc3c3cncnc23)c1
	-13.1%	1.54 µM		3.49 µM			C#Cc1cccc(Nc2nc3cc(C(=O)NC4CC4)ccc3c3cncnc23)c1
	22.9%	23.3 µM		> 10 µM			O=C(O)c1ccc2c(c1)nc(NC1CC1)c1nc(Nc3cccc4ccccc34)ncc12
	57.2%	22.9 µM	> 1.1 µM	> 10 µM			O=C(O)c1ccc2c(c1)nc(Nc1ccc(Oc3ccccc3)cc1)c1ccncc12
	-7.6%	13.3 µM		> 10 µM			C#Cc1cccc(Nc2nc3cc(C(=O)N4CCCC4)ccc3c3cncnc23)c1
	-17.6%	> 30 µM		> 10 µM			C#Cc1cccc(Nc2nc3cc(C(=O)N4CCOCC4)ccc3c3cncnc23)c1
	-11.2%	18.8 µM		> 10 µM			C#Cc1cccc(Nc2nc3cc(C(=O)N(C)c4ccccc4)ccc3c3cncnc23)c1
	-14.6%	9.09 µM		> 10 µM			C#Cc1cccc(Nc2nc3cc(C(=O)NCc4ccc(C#N)cc4)ccc3c3cncnc23)c1
	-15.5%	4.37 µM		4.39 µM			C#Cc1cccc(Nc2nc3cc(C(=O)N(C)CCN(C)C)ccc3c3cncnc23)c1
	-11.2%	3.22 µM		> 10 µM			C#Cc1cccc(Nc2nc3cc(C(=O)N4CCCN(C)CC4)ccc3c3cncnc23)c1
	48.4%	> 30 µM	1.09 µM	> 10 µM			CSc1ncc2c(n1)c(N(C)c1ccccc1)nc1cc(C(=O)O)ccc12
	44.1%	> 30 µM		> 10 µM			O=C(O)c1ccc2c(c1)nc(Nc1cccc(Oc3ccccc3)c1)c1ccncc12
	75.8%	10.7 µM	0.744 µM	> 10 µM			COc1cc(Nc2nc3cc(C(=O)O)ccc3c3cnccc23)ccc1C
	87.3%	7.44 µM	0.711 µM	> 10 µM			O=C(O)c1ccc2c(c1)nc(Nc1cccc(OC(F)(F)F)c1)c1ccncc12
	75.8%	10.4 µM	0.698 µM	> 10 µM			COc1ccccc1Nc1nc2cc(C(=O)O)ccc2c2cnccc12
